Patent US20030017618A1, “Chemical sensor and method of detecting chemical” (priority 2000, published 2003)

Molecular target: T1, OBP 6C (Bos taurus, UniProt P07435)
T1 construct: successively elongated for finally synthesizing the whole length of the OBP gene; made in house; host or cells: E. coli BL21 (pET 28a(+), pETOBP-His)
T1 sequence (P07435 1-159): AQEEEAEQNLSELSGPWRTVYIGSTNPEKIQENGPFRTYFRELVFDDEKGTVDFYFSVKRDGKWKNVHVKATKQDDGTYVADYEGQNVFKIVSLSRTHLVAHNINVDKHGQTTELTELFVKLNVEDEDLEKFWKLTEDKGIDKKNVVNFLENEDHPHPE
Experiment: quantity of immobilization of OBP 6C to NTA sensor chip (surface plasmon resonance, BiacoreX) in presence of odorant
Type: binding, bovine
Details: Inventive Example 1, FIG. 12; odorant final concentration 10^−8 M; OBP solution 200 nM; 25° C.; comparison between odorants
Method: In preparation of the OBP 6C solution employed in the present Inventive Example, the OBP 6C prepared in the aforementioned manner was dissolved in an EB (eluent buffer) and diluted so that the concentration of the solution reached 200 nM.
In preparation of the odorant solutions employed in the present Inventive Example, on the other hand, the six types of odorants, i.e., cineol, linalyl acetate, pinene, geraniol, citronellal and oxidized citronellal were dissolved in ethanol solutions (EtOH) respectively, for preparing odorant solutions of 10^−5 M in concentration as to the respective odorants.
100 μl of the OBP solution having the concentration of 200 nM prepared in the aforementioned manner and 0.1 μl of each odorant solution having the concentration of 10^−5 M were mixed with each other, for preparing six types of sample solutions employed for measurement. In this case, the final concentration of the odorant in each sample solution is […].
An ethanol solution of the OBP 6C (final concentration of EtOH: 0.1%) containing no odorant was also prepared as a comparative sample (blank).
Each sample solution prepared in the aforementioned manner was left to stand at 25° C. for one hour.
Then, an NTA sensor chip (by Biacore) was set in BiacoreX (by Biacore) and thereafter the temperature was set to 25° C. for performing priming with an elution buffer shown in Table 4 described later. Thereafter stabilization of the base was confirmed and the elution buffer was continuously fed at a flow velocity of 20 μl/min. until the temperature reached the set value.
Further, a reproduced solution (30 μl) shown in Table 4 described later was added at a flow velocity of 10 μl/min. and excessive bivalent cation was removed. Then, an Ni solution (30 μl) shown in Table 4 described later was added at a flow velocity of 10 μl/min. for chelating Ni to NTA and immobilizing Ni.
Then, one of the sample solutions (10 μl) prepared in the above was added at a flow velocity of 1 μl/min. for 10 minutes, for immobilizing the OBP 6C onto the sensor chip. After completion of immobilization, the quantity of immobilization of the OBP 6C was measured. Thereafter the reproduced solution shown in Table 4 was employed for washing and removing the OBP 6C immobilized onto the sensor chip.
Operations similar to the above were performed also as to the other sample solutions, for measuring the quantities of immobilization of the OBP 6C as to all of the six types of sample solutions and the comparative (blank) sample solution.
In this case, the quantity of immobilization of the comparative sample (blank) containing no odorant was regarded as 100% for calculating relative values of the quantities of immobilization of the OBP 6C in the respective samples with reference thereto.
In the present Inventive Example, an OBP 6C solution was first prepared along with preparation of DMO solutions. In this case, the OBP 6C solution was prepared by a method similar to the preparation method in Inventive Example 1. In preparation of the DMO solutions, DMO was dissolved in ethanol (EtOH), for preparing solutions of 10^−3, 10^−4, 10^−5 and 10^−6 M in concentration respectively.
100 μl of the OBP 6C solution having the concentration of […] and 0.5 μl of each of the DMO solutions of 10^−3, 10^−4, 10^−5 and 10^−6 M, thereby preparing sample solutions having DMO final concentration values of 5×10^−6, 5×10^−7, 5×10^−8 and 5×10^−9 M respectively. Also in this case, an ethanol solution (final concentration of EtOH: 0.1%) of the OBP 6C containing no DMO was prepared as a comparative sample, similarly to the case of Inventive Example 1.
The respective sample solutions prepared in the aforementioned manner were left to stand at 25° C. for one hour.
After preparing the sample solutions in the aforementioned manner, the quantities of immobilization of the OBP 6C were measured as to the respective sample solutions by a method similar to that in Inventive Example 1.

With `CC(C)=CCCC(C)CC=O` (centres unmarked) [citronellal] as the compound, how does the “affinity for the OBP 6C” value read?
The value was “higher affinity for the OBP 6C as compared with geraniol”.

With oxidized citronellal as the compound, how does the “affinity for the OBP 6C” value read?
Its value is “reduced in oxidized citronellal as compared with non-oxidized citronellal”.

Same assay, conditions: Inventive Example 1, FIG. 12; odorant final concentration 10^−8 M; blank regarded as 100%; comparison between odorants

For `CC(C)=CCCC(C)CC=O` (centres unmarked) [citronellal], which “quantity of immobilization of the OBP 6C” value is on record?
Its value is “reduced in citronellal as compared with geraniol”.

Which “quantity of immobilization of the OBP 6C” value does the source give for oxidized citronellal here?
The value was “increased in oxidized citronellal as compared with the non-oxidized case”.

Same assay, conditions: Inventive Example 2, FIG. 13

For `CC(C)CCCC(C)CCO` (centres unmarked), which “DMO concentration that can be determined from the quantity of immobilization of the OBP 6C (quantitative limit)” value is on record?
The value was “at least 10^−8 M”.

Same assay, conditions: Inventive Example 2, FIG. 13; DMO 5×10^−6 to 5×10^−9 M

Which “DMO concentration range with constant correlation between concentration and quantity of immobilization of the OBP 6C” value does the source give for `CC(C)CCCC(C)CCO` (centres unmarked) here?
Its value is “at least 5×10^−8 M”.

Same assay, conditions: Inventive Example 2, FIG. 13; DMO concentration smaller than 10^−8 M; versus absence of the odorant

With `CC(C)CCCC(C)CCO` (centres unmarked) as the compound, how does the “quantity of immobilization of the OBP 6C” value read?
The value was “equalized with the quantity of immobilization”.

Molecular target: T2, bovine derivation odorant binding protein (OBP) (Bos taurus, UniProt P07435)
T2 sequence (P07435 1-159): T1 sequence (P07435 1-159)
Experiment: not given
Details: grade in words (high / moderate affinity); cited from earlier work

With pinylisobutyl aldehyde as the compound, how does the “affinity for the OBP” value read?
The value was “moderate affinity”.

Which “affinity for the OBP” value does the source give for dimethyl octhene here?
The value was “moderate affinity”.

Which “affinity for the OBP” value does the source give for `CCCCCC1C(=O)CCC1CC(=O)OC` (centres unmarked) [methyl dihydrojasmonate] here?
The value was “moderate affinity”.

For `CC(C)CC(=O)OCc1ccccc1` [benzyl isovalerate], which “affinity for the OBP” value is on record?
Its value is “high affinity”.

With jessemal as the compound, how does the “affinity for the OBP” value read?
The value was “moderate affinity”.

For `CC(C)=CCCC(C)CC=O` (centres unmarked) [citronellal], which “affinity for the OBP” value is on record?
The value was “moderate affinity”.

Which “affinity for the OBP” value does the source give for `O=C(OCc1ccccc1)c1ccccc1` [benzyl benzoate] here?
Its value is “high affinity”.

With `CC(C)CC(=O)OC1CC2CCC1(C)C2(C)C` (centres unmarked) [bornyl isovalerate] as the compound, how does the “affinity for the OBP” value read?
Its value is “moderate affinity”.

With `CC(C)[C@@H]1CC[C@@H](C)CC1=O` [menthone] as the compound, how does the “affinity for the OBP” value read?
The value was “moderate affinity”.

With `CCCCCCCCCCC=O` [undecanal] as the compound, how does the “affinity for the OBP” value read?
The value was “high affinity”.

With `CC(=O)OC/C=C(\C)CCC=C(C)C` [geranyl acetate] as the compound, how does the “affinity for the OBP” value read?
Its value is “moderate affinity”.

For `CCCCCCC=O` [heptanal], which “affinity for the OBP” value is on record?
Its value is “moderate affinity”.

For `CC1=C(/C=C/C(C)=C/C=C/C(C)=C/CO)C(C)(C)CCC1` [retinol], which “affinity for the OBP” value is on record?
Its value is “moderate affinity”.

Which “affinity for the OBP” value does the source give for `CC1C(C)(C)C2=C(C(=O)CCC2)C1(C)C` (centres unmarked) [cashmeran] here?
The value was “moderate affinity”.

Which “affinity for the OBP” value does the source give for ambrettolide here?
Its value is “moderate affinity”.

Which “affinity for the OBP” value does the source give for `Cc1c[nH]c2ccccc12` [skatole] here?
The value was “high affinity”.

Which “affinity for the OBP” value does the source give for `CC(C)=CCCC(C)CCO` (centres unmarked) [citronellol] here?
The value was “high affinity”.

For `CCCCCCCCC=O` [nonanal], which “affinity for the OBP” value is on record?
Its value is “moderate affinity”.

Which “affinity for the OBP” value does the source give for `CCCCCCCCOC(=O)CC(C)C` [octyl isovalerate] here?
The value was “moderate affinity”.

Which “affinity for the OBP” value does the source give for agrumea here?
Its value is “moderate affinity”.

With `CCCCCCCCOC(=O)C(C)C` [octyl isobutyrate] as the compound, how does the “affinity for the OBP” value read?
Its value is “moderate affinity”.

Which “affinity for the OBP” value does the source give for `CC(C)=CCC/C(C)=C/CCC=O` [geranyl acetaldehyde] here?
The value was “moderate affinity”.

Which “affinity for the OBP” value does the source give for `CC(C)=CCCC1=CCC(C=O)CC1` (centres unmarked) [myrmac aldehyde] here?
Its value is “moderate affinity”.

For `CCOC(=O)c1ccccc1C(=O)OCC` [diethylphthalate], which “affinity for the OBP” value is on record?
Its value is “moderate affinity”.

With dimethyl octane as the compound, how does the “affinity for the OBP” value read?
Its value is “moderate affinity”.

With ionone as the compound, how does the “affinity for the OBP” value read?
Its value is “moderate affinity”.

With `CC(C)=CCC/C(C)=C/CO` [geraniol] as the compound, how does the “affinity for the OBP” value read?
Its value is “moderate affinity”.

Which “affinity for the OBP” value does the source give for `CCCCC[C@H]1C(=O)CC[C@H]1CC(=O)OC` [epimethyl dihydrojasmonate] here?
Its value is “moderate affinity”.

For `CC(C)C/C=C(/C=O)c1ccccc1` [cocal], which “affinity for the OBP” value is on record?
Its value is “moderate affinity”.

With `CC1(C)C2CC=C(CCC=O)C1C2` (centres unmarked) [pinoacetaldehyde] as the compound, how does the “affinity for the OBP” value read?
The value was “moderate affinity”.

Which “affinity for the OBP” value does the source give for `CC(C)CCCC(C)(C)O` [dimethol] here?
The value was “moderate affinity”.

Which “affinity for the OBP” value does the source give for `C=CC(C)CCCC(C)(C)O` (centres unmarked) [dihydromyrcenol] here?
The value was “high affinity”.

For `C=CCc1ccc(O)c(OC)c1` [eugenol], which “affinity for the OBP” value is on record?
The value was “moderate affinity”.

With `CC(=O)OCCC(C)CCC=C(C)C` (centres unmarked) [citronellyl acetate] as the compound, how does the “affinity for the OBP” value read?
Its value is “moderate affinity”.

Which “affinity for the OBP” value does the source give for `CCCCCCC(C=O)=Cc1ccccc1` [hexyl cinnamic aldehyde] here?
The value was “high affinity”.

With `CC(=O)OC1CCC(C(C)(C)C)CC1` (centres unmarked) [vertenex] as the compound, how does the “affinity for the OBP” value read?
Its value is “moderate affinity”.

For hexyl pyridine, which “affinity for the OBP” value is on record?
The value was “high affinity”.

For `CCCCCCCCCCCCCC=O` [tetradecanal], which “affinity for the OBP” value is on record?
The value was “high affinity”.

With `COC(C=C(C)CCC=C(C)C)OC` [citral dimethyl acetal] as the compound, how does the “affinity for the OBP” value read?
The value was “moderate affinity”.

For `CCCCCCCCCC=O` [decanal], which “affinity for the OBP” value is on record?
Its value is “moderate affinity”.

With `C=CC(C)(O)CCC=C(C)C` (centres unmarked) [linalool] as the compound, how does the “affinity for the OBP” value read?
Its value is “moderate affinity”.

For `OCCc1ccccc1` [phenetyl alcohol], which “affinity for the OBP” value is on record?
Its value is “moderate affinity”.

Which “affinity for the OBP” value does the source give for `CC(C)=CCC/C(C)=C\CO` [nerol] here?
Its value is “moderate affinity”.

For `O=C(c1ccccc1)c1ccccc1` [benzophenone], which “affinity for the OBP” value is on record?
The value was “high affinity”.

For `C/C=C(C)\C=C\C=C(C)C` [neo-alloocimen], which “affinity for the OBP” value is on record?
Its value is “moderate affinity”.

For `CC/C(=C\CC1CC=C(C)C1(C)C)CO` (centres unmarked) [bacdanol], which “affinity for the OBP” value is on record?
Its value is “moderate affinity”.

For `CCCCC/C(C=O)=C/c1ccccc1` [amyl cinnamic aldehyde], which “affinity for the OBP” value is on record?
Its value is “high affinity”.

With `CC(C)=CCCC(C)=CC#N` [citralva] as the compound, how does the “affinity for the OBP” value read?
Its value is “high affinity”.

For `CCCCCCOC(=O)C(C)CC` (centres unmarked) [hexyl methylbutyrate], which “affinity for the OBP” value is on record?
Its value is “moderate affinity”.

Which “affinity for the OBP” value does the source give for `CC1COCc2cc3c(cc21)C(C)(C)C(C)C3(C)C` (centres unmarked) [galaxolide] here?
Its value is “moderate affinity”.

With coniferane as the compound, how does the “affinity for the OBP” value read?
Its value is “moderate affinity”.

With carbon as the compound, how does the “affinity for the OBP” value read?
Its value is “moderate affinity”.

Which “affinity for the OBP” value does the source give for musk 89 here?
Its value is “high affinity”.

For `CC/C=C\CC1=C(C)CCC1=O` [cisjasmone], which “affinity for the OBP” value is on record?
Its value is “moderate affinity”.

Which “affinity for the OBP” value does the source give for `CC1=C(/C=C/C(C)=C/C=C/C(C)=C/C=O)C(C)(C)CCC1` [retinal] here?
The value was “moderate affinity”.

With `CCCCCC1COCCC1OC(C)=O` (centres unmarked) [jasmal] as the compound, how does the “affinity for the OBP” value read?
The value was “moderate affinity”.

For `CC(C)CCCC(C)CCO` (centres unmarked), which “affinity for the OBP” value is on record?
Its value is “high affinity”.

With heptenal as the compound, how does the “affinity for the OBP” value read?
Its value is “moderate affinity”.
